Measured values from the SangsterLogP compilation.

SMILES	logP
CC(C)c1cccc(C(C)C)c1NC(=O)CC(O)CC(c1ccccc1)c1ccccc1 (stereo not given)	4.01
CC(C)c1cccc(C(C)C)c1NC(=O)CC(CC(c1ccccc1)c1ccccc1)=NO	3.93
CC(C)c1cccc(C(C)C)c1NC(=O)CC(=O)C1(c2ccccc2)CCCC1	4.55
CC(C)c1cccc(C(C)C)c1NC(=O)CC(=O)c1ccccc1	2.87
CC(C)c1cccc(C(C)C)c1NC(=O)CC(=O)C(c1ccccc1)c1ccccc1	3.96

Other lines, results leading:

logP	SMILES
4.88	CCCCCCCCCCCC(=O)C(C)(C)C(=O)Nc1c(OC)cc(OC)cc1OC
5.02	CCCCCCCCCCCC(=O)CC(=O)Nc1c(OC)cc(OC)cc1OC
4.2	CC(C)c1cccc(C(C)C)c1NC(=O)CC(=O)CCCCCCCCCCO
6.67	CCCCCCCCCCCC(=O)C(C)(C)C(=O)N(C)c1c(OC)cc(OC)cc1OC
4.72	CCCCCCCC1CC(C(=O)Nc2c(C(C)C)cccc2C(C)C)C(=O)O1 (stereo not given)
